In patent US7932270B2 (Cytokinetics, Inc., priority 2006, dated 2011):

Target: T1, chicken gizzard smooth muscle myosin subfragment-1 chemically crosslinked to cardiac or skeletal actin (Gallus gallus, UniProt P10587)
T1 construct: chicken gizzard smooth muscle myosin subfragment-1; from tissue; host or cells: chicken gizzard
Assay: Smooth muscle myosin ATPase dose response assay (pyruvate kinase/horseradish peroxidase/pyruvate oxidase-coupled, amplex red fluorescence)
Assay type: biochemical
Details: read-out: IC50 Arithmetic Mean
Description: In Vitro Model of Dose Dependent Smooth Muscle Myosin ATPase Modulation
Screening assays were performed using a pyruvate kinase and lactate dehydrogenase-coupled ATPase assay containing the following reagents: Potassium PIPES (50 mM), MgCl2 (3 mM), KCl (100 mM), ATP (0.15 mM), DTT (1 mM), BSA (0.1 mg/ml), NADH (0.5 mM), PEP (1.5 mM), pyruvate kinase (4 U/ml), lactate dehydrogenase (8 U/ml), and antifoam (50 ppm) (concentrations expressed are final assay concentrations). The pH was adjusted to 6.80 at 22° C. by addition of potassium hydroxide. Lead optimization assays were performed with a more sensitive pyruvate kinase/horseradish peroxidase/pyruvate oxidase-coupled ATPase assay containing the following reagents: Potassium PIPES (12 mM), MgCl2 (2 mM), KCl (100 mM), ATP (0.15 mM), BSA (0.05 mg/ml), potassium phosphate (2 mM), amplex red (0.1 mM), PEP (0.1 mM), pyruvate kinase (4 U/ml), horseradish peroxidase (0.5 U/ml), pyruvate oxidase (0.5 U/ml), and antifoam (50 ppm) (concentrations expressed are final assay concentrations). The pH was adjusted to 7.00 at 22° C. by addition of potassium hydroxide.
The protein components specific to this assay are chicken gizzard smooth muscle myosin subfragment-1 that has been chemically crosslinked to either cardiac or skeletal actin using an excess of 1-Ethyl-3-[3-dimethylaminopropyl]carbodiimide hydrochloride and N-hydroxysuccinimide. The exact concentration of the crosslinked smooth muscle myosin in the assay is determined empirically, by titration to achieve a desired rate of ATP hydrolysis. The concentration varies between protein preparations due to variations in the fraction of active molecules in each preparation.
Compound dose response assays are performed by first preparing a dilution series of test compound, each with an assay mixture containing potassium PIPES, MgCl2, KCl, ATP, BSA, potassium phosphate, amplex red, PEP, crosslinked smooth muscle actomyosin (subfragment-1), antifoam, and water. The assay is started by adding an equal volume of solution containing potassium Pipes, MgCl2, KCl, BSA, potassium phosphate, pyruvate kinase, horseradish peroxidase, pyruvate oxidase, antifoam, and water. ATP hydrolysis is monitored by measuring the fluorescence of amplex red (excitation at 480 nm, emission at 615 nm). The resulting dose response curve is fit by the 4 parameter equation y=Bottom+((Top-Bottom)/(1+((IC50/X)^Hill))). The IC50 is defined as the concentration at which ATPase activity is midway between the top and bottom of the dose response curve.

T1 sequence (P02607 2-151): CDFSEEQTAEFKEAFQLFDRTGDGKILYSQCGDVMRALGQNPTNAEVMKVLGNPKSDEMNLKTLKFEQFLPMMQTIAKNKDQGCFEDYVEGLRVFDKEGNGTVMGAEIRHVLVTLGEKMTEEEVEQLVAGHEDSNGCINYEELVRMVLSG
T1 sequence (P10587 84-789): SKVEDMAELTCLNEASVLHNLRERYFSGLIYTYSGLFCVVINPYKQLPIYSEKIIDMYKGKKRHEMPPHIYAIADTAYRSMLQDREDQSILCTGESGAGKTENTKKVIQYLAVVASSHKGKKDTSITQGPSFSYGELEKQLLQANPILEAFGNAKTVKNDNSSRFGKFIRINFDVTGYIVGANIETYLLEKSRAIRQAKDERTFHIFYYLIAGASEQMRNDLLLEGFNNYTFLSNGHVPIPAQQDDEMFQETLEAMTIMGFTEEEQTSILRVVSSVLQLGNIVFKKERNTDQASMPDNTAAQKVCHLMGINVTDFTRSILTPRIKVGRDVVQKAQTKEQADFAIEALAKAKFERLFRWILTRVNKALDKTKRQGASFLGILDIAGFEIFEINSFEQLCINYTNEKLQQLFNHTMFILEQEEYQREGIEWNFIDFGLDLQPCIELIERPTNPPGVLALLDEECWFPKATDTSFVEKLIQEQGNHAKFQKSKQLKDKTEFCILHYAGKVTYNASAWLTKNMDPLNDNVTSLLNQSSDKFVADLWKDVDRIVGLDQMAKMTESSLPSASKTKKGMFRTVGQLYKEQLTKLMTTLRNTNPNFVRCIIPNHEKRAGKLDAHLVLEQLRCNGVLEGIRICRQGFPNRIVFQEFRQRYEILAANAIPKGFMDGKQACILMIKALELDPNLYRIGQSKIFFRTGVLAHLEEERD

`O=C(NCc1cccnc1)c1ccc(-c2cccc(Cl)c2)nc1NCCc1ccccn1` [{6-(3-chlorophenyl)-2-[(2-(2-pyridyl)ethyl)amino](3-pyridyl)}-N-(3-pyridylmethyl)carboxamide] showed an IC50 of 1970 nM.
With `Cn1cc(-c2ccc(C(=O)NC[C@H]3CNCC(=O)N3CCCN)c(NCCc3cccc(F)c3)n2)cn1` [N-{[(2R)-1-(3-aminopropyl)-6-oxopiperazin-2-yl]methyl}(2-{[2-(3-fluorophenyl)ethyl]amino}-6-(1-methylpyrazol-4-yl)(3-pyridyl))carboxamide] the IC50 was 3560 nM.
For `Cn1cc(-c2nc(NCCc3cccc(F)c3)c(C(=O)NC[C@H]3CCCN3C(=O)CCN)cc2F)cn1` [N-{[(2R)-1-(3-aminopropanoyl)pyrrolidin-2-yl]methyl}(5-fluoro-2-{[2-(3-fluorophenyl)ethyl]amino}-6-(1-methylpyrazol-4-yl)(3-pyridyl))carboxamide], the IC50 was 70 nM.
In the case of `O=C(NCC1CCCO1)c1ccc(-c2ccccc2)nc1NCCc1ccccn1` (stereo not drawn) [N-(oxolan-2-ylmethyl){6-phenyl-2-[(2-(2-pyridyl)ethyl)amino](3-pyridyl)}carboxamide], the IC50 is reported as 11000 nM.
Compound `Cn1cc(-c2nc(NCCc3cccc(F)c3)c(C(=O)NC[C@H]3CCCN3C(=O)CN)cc2F)cn1` [N-{[(2R)-1-(2-aminoacetyl)pyrrolidin-2-yl]methyl}(5-fluoro-2-{[2-(3-fluorophenyl)ethyl]amino}-6-(1-methylpyrazol-4-yl)(3-pyridyl))carboxamide] has an IC50 of 66 nM.
`N#Cc1cccc(CCNc2nc(-c3ccccc3)ccc2C(=O)NCc2cccnc2)c1` [(2-{[2-(3-cyanophenyl)ethyl]amino}-6-phenyl(3-pyridyl))-N-(3-pyridylmethyl)carboxamide] gave an IC50 of 4650 nM.
`N#Cc1ccccc1-c1ccc(C(=O)NC[C@H]2CCC(=O)N2CCN)c(NCCc2cccc(F)c2)n1` [N-{[(2R)-1-(2-aminoethyl)-5-oxopyrrolidin-2-yl]methyl}(6-(2-cyanophenyl)-2-{[2-(3-fluorophenyl)ethyl]amino}(3-pyridyl))carboxamide] was tested, and the IC50 was 110 nM.
In the case of `CC(C)(C)OC(=O)NCCCN1C(=O)CC[C@@H]1CNC(=O)c1ccc(-c2ccccc2C#N)nc1NCCc1cccc(F)c1` [N-[((2R)-1-{3-[(tert-butoxy)carbonylamino]propyl}-5-oxopyrrolidin-2-yl)methyl](6-(2-cyanophenyl)-2-{[2-(3-fluorophenyl)ethyl]amino}(3-pyridyl))carboxamide], the IC50 is reported as 518 nM.
`Cn1cc(-c2ccc(C(=O)NCc3ccnn3CCN)c(NCCc3cccc(F)c3)n2)cn1` [N-{[1-(2-aminoethyl)pyrazol-5-yl]methyl}(2-{[2-(3-fluorophenyl)ethyl]amino}-6-(1-methylpyrazol-4-yl)(3-pyridyl))carboxamide] showed an IC50 of 313 nM.
Work on `Cn1cc(-c2nc(NCCc3cccc(F)c3)c(C(=O)NCc3cccnc3CN)cc2F)cn1` [N-{[2-(aminomethyl)(3-pyridyl)]methyl}(5-fluoro-2-{[2-(3-fluorophenyl)ethyl]amino}-6-(1-methylpyrazol-4-yl)(3-pyridyl))carboxamide] yielded an IC50 of 12 nM.
For `CNC(=O)c1ccc(-c2ccccc2)nc1NCCc1ccccc1` [N-methyl{6-phenyl-2-[(2-phenylethyl)amino](3-pyridyl)}carboxamide], the IC50 was 18600 nM.
`O=C(NC[C@H]1CCN1C(=O)CO)c1ccc(-c2cn[nH]c2)nc1NCCc1cccc(F)c1` [N-{[(2R)-1-(2-hydroxyacetyl)azetidin-2-yl]methyl}(2-{[2-(3-fluorophenyl)ethyl]amino}-6-pyrazol-4-yl(3-pyridyl))carboxamide] was tested, and the IC50 was 559 nM.
With `N#Cc1ccccc1-c1ccc(C(=O)NC[C@H]2CCCCN2C(=O)OCCCl)c(NCCc2cccc(F)c2)n1` [2-chloroethyl (2R)-2-{[(6-(2-cyanophenyl)-2-{[2-(3-fluorophenyl)ethyl]amino}(3-pyridyl))carbonylamino]methyl}piperidinecarboxylate] the IC50 was 2690 nM.
With `Cc1ccccc1-c1ccc(C(=O)NCc2cccnc2)c(NCCc2ccccn2)n1` [{6-(2-methylphenyl)-2-[(2-(2-pyridyl)ethyl)amino](3-pyridyl)}-N-(3-pyridylmethyl)carboxamide] the IC50 was 11000 nM.
With `C[C@@H](CNC(=O)c1cc(F)c(-c2cnn(C)c2)nc1NCCc1cccc(F)c1)NC(=O)CN` the IC50 was 1800 nM.
`N#Cc1ccccc1-c1ccc(C(=O)NCc2cncc(CN)c2)c(NCCc2cccc(F)c2)n1` [N-{[5-(aminomethyl)(3-pyridyl)]methyl}(6-(2-cyanophenyl)-2-{[2-(3-fluorophenyl)ethyl]amino}(3-pyridyl))carboxamide] showed an IC50 of 323 nM.
With `C[C@@H](CO)CNC(=O)c1cc(F)c(-c2cnn(C)c2)nc1NCCc1cccc(F)c1` [N-((2R)-3-hydroxy-2-methylpropyl)(5-fluoro-2-{[2-(3-fluorophenyl)ethyl]amino}-6-(1-methylpyrazol-4-yl)(3-pyridyl))carboxamide] the IC50 was 50 nM.
With `N#Cc1ccccc1-c1ccc(C(=O)NC[C@H]2CNCC(=O)N2)c(NCCc2cccc(F)c2)n1` [N-[((2R)-6-oxopiperazin-2-yl)methyl](6-(2-cyanophenyl)-2-{[2-(3-fluorophenyl)ethyl]amino}(3-pyridyl))carboxamide] the IC50 was 155 nM.
With `N#Cc1ccccc1-c1ccc(C(=O)NCc2cc(CN)ccn2)c(NCCc2cccc(F)c2)n1` [N-{[4-(aminomethyl)(2-pyridyl)]methyl}(6-(2-cyanophenyl)-2-{[2-(3-fluorophenyl)ethyl]amino}(3-pyridyl))carboxamide] the IC50 was 598 nM.
With `O=C(NCc1cccnc1)c1ccc(-c2ccc(CO)s2)nc1NCCc1cccc(F)c1` [(2-{[2-(3-fluorophenyl)ethyl]amino}-6-[5-(hydroxymethyl)(2-thienyl)](3-pyridyl))-N-(3-pyridylmethyl)carboxamide] the IC50 was 41 nM.
`N#Cc1ccccc1-c1ccc(C(=O)NC[C@H]2CCN2C(=O)CN)c(NCCc2cccc(F)c2)n1` [N-{[(2R)-1-(2-aminoacetyl)azetidin-2-yl]methyl}(6-(2-cyanophenyl)-2-{[2-(3-fluorophenyl)ethyl]amino}(3-pyridyl))carboxamide] was tested, and the IC50 was 44 nM.
Compound `O=C(NCc1cccnc1)c1ccc(-c2ccccc2)nc1NCCc1ccc(O)cc1` [(2-{[2-(4-hydroxyphenyl)ethyl]amino}-6-phenyl(3-pyridyl))-N-(3-pyridylmethyl)carboxamide] has an IC50 of 36700 nM.
With `Cn1cc(-c2ccc(C(=O)NCc3cccnc3)c(NCCc3cccc(F)c3)n2)c(C#N)n1` [(6-(3-cyano-1-methylpyrazol-4-yl)-2-{[2-(3-fluorophenyl)ethyl]amino}(3-pyridyl))-N-(3-pyridylmethyl)carboxamide] the IC50 was 47 nM.
`NCCCN1C(=O)CNC[C@@H]1CNC(=O)c1ccc(-c2cn[nH]c2)nc1NCCc1cccc(F)c1` [N-{[(2R)-1-(3-aminopropyl)-6-oxopiperazin-2-yl]methyl}(2-{[2-(3-fluorophenyl)ethyl]amino}-6-pyrazol-4-yl(3-pyridyl))carboxamide] was tested, and the IC50 was 2340 nM.
Work on `CNC(=O)CNC(=O)c1ccc(-c2cnn(C)c2)nc1NCCc1cccc(F)c1` [2-[(2-{[2-(3-fluorophenyl)ethyl]amino}6-(1-methylpyrazol-4-yl)(3-pyridyl))carbonylamino]-N-methylacetamide] yielded an IC50 of 350 nM.
For `Cn1cc(-c2nc(NCCc3cccc(F)c3)c(C(=O)NC[C@H]3CCC(=O)N3CCCN)cc2Cl)cn1` [N-{[(2R)-1-(3-aminopropyl)-5-oxopyrrolidin-2-yl]methyl}(5-chloro-2-{[2-(3-fluorophenyl)ethyl]amino}-6-(1-methylpyrazol-4-yl)(3-pyridyl))carboxamide], the IC50 was 160 nM.
`C[C@H](CNC(=O)c1ccc(-c2ccccc2C#N)nc1NCCc1cccc(F)c1)NC(=O)CNC(=O)OC(C)(C)C` gave an IC50 of 2310 nM.
With `CC[C@H](CNC(=O)c1cc(F)c(-c2cn[nH]c2)nc1NCCc1cccc(F)c1)NC(=O)CNC(=O)OC(C)(C)C` [N-((1R)-1-{[(5-fluoro-2-{[2-(3-fluorophenyl)ethyl]amino}-6-pyrazol-4-yl(3-pyridyl))carbonylamino]methyl}propyl)-2-[(tert-butoxy)carbonylamino]acetamide] the IC50 was 4320 nM.
With `NC(=O)CCNC(=O)c1ccc(-c2ccc(CO)s2)nc1NCCc1cccc(F)c1` [N-(2-carbamoylethyl)(2-{[2-(3-fluorophenyl)ethyl]amino}-6-[5-(hydroxymethyl)(2-thienyl)](3-pyridyl))carboxamide] the IC50 was 549 nM.
`N#Cc1ccccc1-c1ccc(C(=O)NC[C@H]2CCCCN2C(=O)[C@H](N)CN)c(NCCc2cccc(F)c2)n1` [N-{[(2R)-1-((2R)-2,3-diaminopropanoyl)(2-piperidyl)]methyl}(6-(2-cyanophenyl)-2-{[2-(3-fluorophenyl)ethyl]amino}(3-pyridyl))carboxamide] was tested, and the IC50 was 161 nM.
